In US6867316B2, “Platinum(II) complexes of N-substituted amino dicarboxylates and the preparation method thereof” (Board of Trustees, Ewha Womans University, priority 2003, dated 2005):

Experiments:
leukemia L1210 cell line [1] = test: Antitumor activity bioassay against leukemia L1210 cell line (IC50); assay type: cell-based
Description: Antitumor activities of the platinum complexes prepared in the above Examples 1 to 9 were assayed against the leukemia L1210 cell line according to the known method (S. S. Lee, O.-S. Jung, C. O. Lee, S. U. Choi, M.-J. Jun, Y. S. Sohn, Inorg. Chim. Acta, 239, 133 (1995)), and the results are shown in Table 1.

leukemia L1210 cell line [2] = test: Antitumor activity bioassay against leukemia L1210, T/C (%) at given dosage; assay type: in vivo

`CC(=O)N[C@@H](CCC(=O)[O-])C(=O)[O-].N[C@@H]1CCCC[C@H]1N.[Pt+2]` (racemic) [Pt(dach)(AcGlu), (N-acetyl-L-glutamato-O,O)(trans-(±)-1,2-diaminocyclo-hexane-N,N)platinum(II) complex] was tested, and the IC50 (leukemia L1210 cell line [1]) was 4.63 µM, the “T/C (%)” value (leukemia L1210 cell line [2]; dosage amount 20 mg/kg) was 227.3% and the “T/C (%)” value (leukemia L1210 cell line [2]; dosage amount 40 mg/kg) was 190.9%.
In the case of `N[C@@H]1CCCC[C@H]1N.O=C([O-])C[C@H](NC(=O)OCc1ccccc1)C(=O)[O-].[Pt+2]` (racemic) [Pt(dach)(CbzAsp), (N-carbobenzyloxy-L-aspartato-O,O)(trans-(±)-1,2-diamino-cyclohexane-N,N)platinum(II)], the IC50 (leukemia L1210 cell line [1]) is reported as 26.5 µM, the “T/C (%)” value (leukemia L1210 cell line [2]; dosage amount 20 mg/kg) is reported as 175.0% and the “T/C (%)” value (leukemia L1210 cell line [2]; dosage amount 40 mg/kg) is reported as 193.8%.
`N[C@@H]1CCCC[C@H]1N.O=C([O-])CC[C@H](NC(=O)OCc1ccccc1)C(=O)[O-].[Pt+2]` (racemic) [Pt(dach)(CbzGlu), (N-carbobenzyloxy-L-glutamato-O,O)(trans-(±)-1,2-diaminocyclohexane-N,N)platinum(II)] was tested, and the IC50 (leukemia L1210 cell line [1]) was 65.1 µM, the “T/C (%)” value (leukemia L1210 cell line [2]; dosage amount 20 mg/kg) was 170.0% and the “T/C (%)” value (leukemia L1210 cell line [2]; dosage amount 40 mg/kg) was 207.5%.
`N[C@@H]1CCCC[C@H]1N.O=C([O-])CC[C@@H](C(=O)[O-])N1C(=O)c2ccccc2C1=O.[Pt+2]` (racemic) [Pt(dach)(PhthGlu), (N-phthaloyl-L-glutamato-O,O)(trans-(±)-1,2-diaminocyclo-hexane-N,N)platinum(II)] was tested, and the IC50 (leukemia L1210 cell line [1]) was 34.9 µM, the “T/C (%)” value (leukemia L1210 cell line [2]; dosage amount 20 mg/kg) was 177.3% and the “T/C (%)” value (leukemia L1210 cell line [2]; dosage amount 40 mg/kg) was 221.6%.
With `CC(C)(C)C(=O)N[C@@H](CCC(=O)[O-])C(=O)[O-].N[C@@H]1CCCC[C@H]1N.[Pt+2]` (racemic) [Pt(dach)(PivGlu), (N-pivalyl-L-glutamato-O,O)(trans-(±)-1,2-diaminocyclo-hexane-N,N)platinum(II)] the IC50 (leukemia L1210 cell line [1]) was 2.23 µM, the “T/C (%)” value (leukemia L1210 cell line [2]; dosage amount 20 mg/kg) was 211.3% and the “T/C (%)” value (leukemia L1210 cell line [2]; dosage amount 40 mg/kg) was 212.5%.
`CCC(=O)N[C@@H](CCC(=O)[O-])C(=O)[O-].N[C@@H]1CCCC[C@H]1N.[Pt+2]` (racemic) [Pt(dach)(ProGlu), (N-propionyl-L-glutamato-O,O)(trans-(±)-1,2-diaminocyclo-exane-N,N)platinum(II)] was tested, and the IC50 (leukemia L1210 cell line [1]) was 2.94 µM, the “T/C (%)” value (leukemia L1210 cell line [2]; dosage amount 20 mg/kg) was 212.5% and the “T/C (%)” value (leukemia L1210 cell line [2]; dosage amount 40 mg/kg) was 228.8%.
`Cc1ccc(S(=O)(=O)N[C@@H](CCC(=O)[O-])C(=O)[O-])cc1.N[C@@H]1CCCC[C@H]1N.[Pt+2]` (racemic) [Pt(dach)(TsGlu), (N-tosyl-L-glutamato-O,O)(trans-(±)-1,2-diaminocyclo-hexane-N,N)platinum(II)] was tested, and the IC50 (leukemia L1210 cell line [1]) was 17.6 µM, the “T/C (%)” value (leukemia L1210 cell line [2]; dosage amount 20 mg/kg) was 176.3% and the “T/C (%)” value (leukemia L1210 cell line [2]; dosage amount 40 mg/kg) was 191.3%.
With `N.N.O=C([O-])C1(C(=O)[O-])CCC1.[Pt+2]` [Carboplatin, reference compound] the IC50 (leukemia L1210 cell line [1]) was 10.2 µM and the “T/C (%)” value (leukemia L1210 cell line [2]; dosage amount 40 mg/kg) was 168/40%.
`N.N.[Cl][Pt][Cl]` [Cisplatin, reference compound] was tested, and the IC50 (leukemia L1210 cell line [1]) was 1 µM and the “T/C (%)” value (leukemia L1210 cell line [2]; dosage amount 4 mg/kg) was 184/4%.
In the case of `CC(=O)N[C@@H](CC(=O)[O-])C(=O)[O-].CC(C)(CN)CN.[Pt+2]` [Pt(dmpda)(AcAsp), (N-acetyl-L-aspartato-O,O)(2,2-dimethyl-1,3-propane-diamine-N,N)platinum(II)], the IC50 (leukemia L1210 cell line [1]) is reported as 3.19 µM, the “T/C (%)” value (leukemia L1210 cell line [2]; dosage amount 20 mg/kg) is reported as 146.2% and the “T/C (%)” value (leukemia L1210 cell line [2]; dosage amount 40 mg/kg) is reported as 160.4%.
For “(N-acetyl-L-aspartato-O,O)(trans-(±)-1,2-diaminocyclo-hexane-N,N)platinum(II) [Pt(dach)(AcAsp)]”, the IC50 (leukemia L1210 cell line [1]) was 3.73 µM, the “T/C (%)” value (leukemia L1210 cell line [2]; dosage amount 20 mg/kg) was 179.6% and the “T/C (%)” value (leukemia L1210 cell line [2]; dosage amount 40 mg/kg) was 225.0%.
